Test system: lung leukocyte recruitment and T-helper cell polarisation
Test: Ovalbumin-induced lung inflammation model of asthma (BAL leukocyte count, splenocyte Th1/Th2 ratio)
Type: in vivo, Brown Norway rat
Conditions: rat, 0.3 mg/kg daily oral
Protocol: Adult Brown Norway rats (200-300 g body weight; n=10 per group) were sensitised by a single intraperitoneal injection of 0.1 mg Ovalbumin on day 0. Each rat then received an intratracheal challenge with a solution of 1% ovalbumin (w/v) on day 8, and with 2% ovalbumin (w/v) on days 15, 18 and 21. The animals were then sacrificed 3 hours after the final challenge on day 21. Note that ovalbumin (Sigma; purest available grade) was made endotoxin-free by passage over EndoTrap™ Red columns (purchased from Cambrex; used in accordance with the manufacturer's instructions), and the endotoxin level was confirmed as <5 EU/mg protein using the LAL assay (QCL-1000™; Cambrex; performed in accordance with the manufacturer's instructions; 1 mg of standard endotoxin contains ˜900,000 EU/mg). […]
On sacrifice, total lung leukocyate recruitment was assessed by performing a broncheoalveolar lavage (BAL) using 4 lots of 3 ml sterile phosphate-buffered saline introduced through a tracheal cannula. For each animal, the BAL washes were combined, and the total cell population counted (using a haemocytometer). […]
The spleen was also removed from each […] and placed in RPMI+10% FCS+antibiotics. […] The resulting cell suspension was then centrifuged (328 g; 5 mins) and washed in RPMI+10% FCS+antibiotics, before being resuspended in fresh media and counted using a haemocytometer. […]

With `CC(C)(C)C(=O)N[C@H]1CCCNC1=O` [Compound (I′), 3-(2′,2′-dimethylpropanoylamino)-tetrahydropyridin-2-one] the “Th2 polarisation (Th1/Th2 ratio of CD4+ splenocytes)” value was “completely abolishes the Th2 polarisation”.
